Experimental data reported in patent US7816407B2, “Agmatine and agmatine analogs in the treatment of epilepsy, seizure, and electroconvulsive disorders” (University of Kentucky Research Foundation, priority 2000, dated 2010).

What was measured:
[1] = system: MES-induced seizure spread (hindlimb tonic extension); assay: Maximal Electroshock Seizure (MES) test; format: in vivo, rat
Text: The MES is an experimental model for generalized tonic-clonic seizures that identifies compounds which prevent seizure spread. The MES model is highly reproducible and has a consistent endpoint. An advantage of this model is that the behavioral and electrographic seizures are consistent with those observed in humans (Levy, R. H., Antiepileptic drugs. 3rd Ed. 1989, New York: Raven Press. xxvii, 1025. p. 85-102).
In the MES test, the animal receives an electrical stimulus, 0.2 seconds in duration, via corneal electrodes primed with an electrolyte solution containing an anesthetic agent. The 0.2 second stimulation is generated with 150 mA in rats at 60 Hz. Twenty rats, weighing between 105 g and 130 g receive an electrical stimulus 15 minutes, 30 minutes, 1 hour, 2 hours, 4 hours, 8 hours and 12 hours after oral administration of a dose of about 30 mg/kg of agmatine in phosphate buffered in saline per kg of the animal. The test endpoint, electrogenic seizure, is manifested as hindlimb tonic extension.

mice = assay: Rotorod neurotoxicity test; format: in vivo, mouse; conditions: doses as high as 300 mg/kg
Protocol: (§1) Toxicity in mice and rats is assessed using three screens: the rotorod in mice, positional sense, and gait in rats. In mice, the test compound is administered at doses of 30, 100, and 300 mg/kg prior to evaluation in the toxicity screens. The mice are tested 0.5 hours and 4 hours after administration of the test compound. In rats, the test compound is administered at 30 mg/kg prior to the toxicity assessment. The rats are tested at 0.25, 0.5, 1, 2, and 4 hours after administration of the test compound.
Toxicity in mice weighing between 20.5 and 25.5 g is assessed using the standardized rotorod test (Dunham, M. S. and T. A. Miya, A note on a simple apparatus for detecting neurological deficit in rats and mice, J. Am. Pharm. Assoc. Sci. Edit (1957) 46:208-209). Control mice can maintain their equilibrium for an extended period of time when they are placed on a 6 rpm rotation rod. Neurologically impaired animals cannot maintain equilibrium for one minute in each of three successive trials.

rats [2] = assay: Positional sense test; format: in vivo, rat; conditions: oral or intraperitoneal, 30 mg/kg
Protocol: as §1
Behavioral toxicity in rats weighing between 105 and 130 g is assessed by the positional sense test. […] If the rat experiences neurological toxicity, it will not be able to quickly lift its leg back to a normal position.

rats [3] = assay: Gait and stance test; format: in vivo, rat; conditions: oral or intraperitoneal, 30 mg/kg
Protocol: as §1
In the gait and stance test, neurotoxicity is indicated by a circular or zigzag gait after administration of the test compound. In addition, ataxia, abnormal spread of the legs, abnormal posture, tremor hyperactivity, lack of exploratory behavior, somnolence, stupor, or catalepsy can indicate neurotoxicity. This toxicity test was conducted on 20 rats, weighing between 105 and 130 g.

With `NCCCCN=C(N)N` [agmatine, 4-aminobutylguanidine] the “rats protected from MES-induced seizure spread” value (“rats protected” below) ([1]; intraperitoneal, 4 hours before electrical shock) was 50%, the “rats protected” value ([1]; oral 30 mg/kg, shock 0.25 hours after administration) was 37.5% and the “rats protected” value ([1]; oral 30 mg/kg, shock 0.5 hours after administration) was 12.5%. The “rats protected” value ([1]; oral 30 mg/kg, shock 2 hours after administration) was 12.5%, the “rats protected” value ([1]; oral 30 mg/kg, shock 4 hours after administration) was 75% and the “rats protected” value ([1]; oral 30 mg/kg, shock 6 hours after administration) was 25%. The “behavioral or neurotoxicity in rotorod test” value (mice) was “none of these animals showed any evidence of behavioral or neurotoxicity”, the “neurotoxicity in positional sense test” value (rats [2]) was “no neurotoxicity” and the “neurotoxicity in gait and stance test” value (rats [3]) was “no neurotoxicity”.
